# Measured values taken from patent US9101138B2, “Methods and compositions utilizing lactams derived from camphor, verbenone or cat thyme oil for repelling blood-sucking and biting insects, ticks and mites” (The United States of America, as represented by the …, priority 2013, dated 2015).
# Tests used:
# Assay type in all cases: in vivo
# Aedes aegypti females = experiment: Feeding deterrency assay utilising K&D module; conditions: 25 nmol\cm^2
# Protocol: Feeding Deterrency assay utilising K&D module (Klun, J. A., and M. Debboun, J. Med. Entomol., 37: 177-181 (2000); Klun, J. A., et al., 40: 293-299 (2003)): Test compounds were bioassayed for their feeding deterrency against Aedes aegypti females in K&D module assay. […] Feeding deterrency was evaluated as proportion feeding. Ethanol was used as control.
# [1] = test system: adult lone star ticks, Amblyomma americanum; experiment: Tick repellency: vertical filter paper bioassay; conditions: for % repelled: ticks exposed 10-15 minutes after application
# Protocol: Tick repellency: Vertical filter paper bioassay against adult lone star ticks, Amblyomma americanum, and nymphs was conducted with selected lactams, lactones and ketones. Adult ticks were exposed 10-15 minutes after application of the candidate compounds. Repellency was measured in % repelled from the treated surface at various concentrations.
# Aedes aegypti = experiment: Free choice assay against mosquitoes (feeding deterrence assay in glove box); conditions: treated membrane over human blood, 20 min; for EC50: median effective dose to repel 50% of mosquitoes
# Protocol: Free Choice Assay against mosquitoes (compact repellency): Mosquitoes used were nulliparous female Aedes aegypti (Red eye Liverpool strain). They were laboratory-reared and maintained at 27° C. and 80% RH under a photoperiod of 12:12 (L:D) h by using standard mosquito rearing procedures (Rutledge, C. C., et al., J. Med. Entomol., 14: 536-541 (1978)). Larvae were fed a diet of ground tropical fish flakes and adults were fed a 10% sucrose solution. Adult female mosquitoes used for experimentation were between 5 and 15 d old and starved (provided only water) for 24 h before testing. The test system consisted of a mosquito blood-feeder, a constant-temperature water circulator (to maintain the temperature of the blood at 37° C.) and a specially designed cage. The mosquito blood-feeder contained five circular blood reservoirs, each of which was filled with outdated human blood titrated with adenosine triphosphate. The wells were then covered with sausage membrane and secured using high vacuum grease. Absolute ethanol was used as a solvent and diluent for candidate repellents. Each diluted repellent solution was then randomly applied to the membrane surface at concentrations of 0.02, 0.04, 0.08 and 0.16 mg/cm^2. A separate membrane covered well served as a control. 250 mosquitoes were exposed to the treated membranes on the blood reservoirs ad libitum by opening the sliding door in the floor of the test cage. The number of mosquitoes feeding on each well was counted and noted at two-minute intervals for 20 minutes using the total number of feeding mosquitoes as a response. Each test was replicated for a minimum of four times to obtain a statistically valid sample size for analysis. The median effective dose to repel 50% of the mosquito test population was then calculated by the method of Goldstein (Goldstein, A., et al., 1974. Principles of Drug Action: The Basis of Pharmacology, 2nd ed., John Wiley and Sons, New York, N.Y., 854 p) (chemical sensitivity levels calculated from the dose-response regression equation) for single curves with graded responses. Significant differences were then determined by comparing the 95% confidence level among effective doses.
# [2] = test system: Sand Fly (Phlebotomus papatasi); experiment: Sand fly blood-feeding assay for testing repellents and feeding deterrents; conditions: 2 h; for Mean % Feeding / Mean % Inhibition: n = 3; for effectiveness (comparison between compounds): sand fly blood feeding
# From the text: Sand Fly (Phlebotomus papatasi) blood-feeding assay for testing repellents and feeding deterrents: A pig intestine-based membrane feeing system (Watnaporn, D., et al., Proceedings of VIIIth Sir Dorabjee Tata International Symposium: Arthropod born viral infections-Current status and research, Pages 417-424, 2008) has been used for blood-feeding of female sand flies in colony maintenance. The same technique has been used for testing repellency and antifeeding effects of several new compounds. A circular area of the fabric mesh on top of the test container that matches the size of the glass feeder was treated with the test compound by applying the test solution using a Q-tip. After a group of 30 females and 15 males was placed into the test container, a glass feeder filled with cow blood was placed on top of the treated area in the center of the fabric mesh that was secured on top of the container. Sand flies were allowed to feed for 2 h before the number of blood-fed females was in each feeding container counted.
# Female sand flies in the untreated control achieved a 32% to 61% blood feeding rate during the test period (2 h) when a group of 30 females and 15 males was placed in a feeding pot and fed through a fine mesh screen using an artificial membrane feeding system (Table 1 [?]).
Compound,% not biting (Aedes aegypti females) [%],mean bites\6 (Aedes aegypti females),total Bites\120 (Aedes aegypti females),% repelled ([1]; Conc. 125 ug) [%],% repelled ([1]; Conc. 500 ug) [%],% repelled ([1]; Conc. 2000 ug) [%],EC50 (Aedes aegypti) [mg/cm^2],EC95 (Aedes aegypti) [mg/cm^2],Mean % Feeding ([2]; concentration 0.001%) [%],Mean % Inhibition ([2]; concentration 0.001%) [%],Mean % Feeding ([2]; concentration 0.01%) [%],Mean % Inhibition ([2]; concentration 0.01%) [%],other results
"CCN(CC)C(=O)c1cccc(C)c1 [DEET, N,N-diethyl-m-toluamide, reference compound]",94,0.4,8,5,68.3,95.7,–,–,–,–,–,–,repellency ([1]; at 125 and 64 ug concentrations): failed to repel ticks
"CCCN1CC2CCC(C)(C1=O)C2(C)C (centres unmarked) [Compound 1a, N-propyl camphor lactam]",96,0.25,5,26.7,100,93.3,0.0282,0.102,1.1,98.5,0.0,100.0,Mean % Feeding ([2]; concentration 0.00001%): 5.6%; Mean % Inhibition ([2]; concentration 0.00001%): 92.4%; Mean % Feeding ([2]; concentration 0.0001%): 6.7%; Mean % Inhibition ([2]; concentration 0.0001%): 90.9%
"CC(C)=CCCC(C)C1C=CC(=O)CC1 (centres unmarked) [Compound 7a, 4-(1,5-Dimethylhex-4-enyl)cyclohex-2-en-1-one]",–,–,–,73.3,96.7,82.5,–,–,–,–,–,–,% repelled ([1]; Conc. 31 ug): 20%; % repelled ([1]; Conc. 63 ug): 53.3%; lowest concentration at which adult ticks were repelled ([1]; filter paper bioassay): 31 µg
"C=C1COC(=O)[C@H]2[C@@H]1CC[C@@H]2C [Compound 5, Dolicholactone (C)]",89,0.7,14,–,–,–,–,–,–,–,–,–,–
"C=C1C(=O)OC[C@H]2[C@@H]1CC[C@@H]2C [Compound 6, Dolicho lactone (D)]",87,0.8,16,–,–,–,–,–,–,–,–,–,–
"CC12CCC(CNC1=O)C2(C)C (centres unmarked) [Compound 1, Camphor lactam]",91,0.55,11,26.7,66.7,73.3,0.0355,0.166,2.2,97.0,0.0,100.0,Mean % Feeding ([2]; concentration 0.00001%): 6.7%; Mean % Inhibition ([2]; concentration 0.00001%): 90.9%; Mean % Feeding ([2]; concentration 0.0001%): 3.3%; Mean % Inhibition ([2]; concentration 0.0001%): 95.5%
"C=C1CNC(=O)C2C(C)CCC12 (centres unmarked) [Compound 3, Dolicho (C) lactam]",92,0.5,10,–,–,–,0.0322,0.173,–,–,–,–,effectiveness (comparison between compounds) [2]: more effective than dolicholactone
"C=C1CN(CCC)C(=O)C2C(C)CCC12 (centres unmarked) [Compound 3a, N-propyl dolicho-C-lactam]",98,0.15,3,83.6,100,100,0.0317,0.117,25.6,65.1,17.8,75.8,Mean % Feeding ([2]; concentration 0.02%): 8.9%; Mean % Inhibition ([2]; concentration 0.02%): 87.9%; Mean % Feeding ([2]; concentration 0.04%): 5.6%; Mean % Inhibition ([2]; concentration 0.04%): 92.4%; effectiveness (comparison between compounds) [2]: more effective than dolicholactam; % repelled ([1]; Conc. 63 ug): 20%
N-propyl dihydro verbenone lactam [Compound 2a],92,0.5,10,–,–,–,0.0561,0.264,–,–,–,–,–
